Data on 19 compounds can be found in patent US20240043427A1 (Gilead Sciences, Inc., priority 2020, published 2024).

The target of assay [1] is T1, CD73 (Homo sapiens (Human), UniProt P21589). The assay can be described thus: MDA-MB-231 Cell Based CD73 Activity Assay (DMEM). Conditions: MDA-MB-231-GFP cells, DMEM medium with 10% human plasma, 200 uM AMP.
For assay [2], the target named is T1, CD73. The format is biochemical. As to conditions: 1 mM NaH2PO4 in enzyme buffer, CD73 0.3 nM, AMP 15 uM.

The term EC50 denotes the concentration at which the effect is half-maximal. A lower EC50 goes with a more potent agent. The IC50 is the concentration needed to halve the response being measured. Read a low IC50 as greater potency in that assay.

Molecules are shown by their SMILES.

T1 sequence (P21589 27-574): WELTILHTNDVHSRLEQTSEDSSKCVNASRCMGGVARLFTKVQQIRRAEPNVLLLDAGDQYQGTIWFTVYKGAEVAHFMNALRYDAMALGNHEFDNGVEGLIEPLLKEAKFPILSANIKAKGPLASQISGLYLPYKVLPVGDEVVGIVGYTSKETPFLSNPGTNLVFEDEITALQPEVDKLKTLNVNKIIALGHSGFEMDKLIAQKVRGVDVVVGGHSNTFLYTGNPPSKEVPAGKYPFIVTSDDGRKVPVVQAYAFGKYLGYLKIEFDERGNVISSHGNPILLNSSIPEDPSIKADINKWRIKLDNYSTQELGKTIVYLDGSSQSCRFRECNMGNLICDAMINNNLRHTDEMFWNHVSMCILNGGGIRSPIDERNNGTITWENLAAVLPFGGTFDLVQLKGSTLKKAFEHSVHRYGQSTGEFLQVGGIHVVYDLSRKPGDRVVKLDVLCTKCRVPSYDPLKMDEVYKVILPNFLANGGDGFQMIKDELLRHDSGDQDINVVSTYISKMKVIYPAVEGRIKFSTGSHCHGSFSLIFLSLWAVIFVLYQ

Consider `O=c1[nH]cc(-c2cc(NCCc3cccc(Cl)c3)c3nccn3n2)c(=O)[nH]1` [Example 490, 5-(8-((3-chlorophenethyl)amino)imidazo[1,2-b]pyridazin-6-yl)pyrimidine-2,4(1H,3H)-dione], for which, on CD73 [1], the EC50 amounted to 463 nM. The compound also came in with an IC50 on CD73 [2] of 95 nM.
Turning to `O=c1[nH]cc(-c2cc(N3CC(F)(F)C4(CC4)C3)n3nccc3n2)c(=O)[nH]1` [Example 350, 5-(7-(7,7-difluoro-5-azaspiro[2.4]heptan-5-yl)pyrazolo[1,5-a]pyrimidin-5-yl)pyrimidine-2,4(1H,3H)-dione], a half-maximal effect on CD73 [1] (EC50) was put at 99.3 nM. The compound further had an IC50 at CD73 [2] of 12 nM.
As to `O=C1N(CC(F)(F)C(F)F)c2cc([C@H]3C[C@@H]3c3cc(-c4c[nH]c(=O)[nH]c4=O)nn4ccnc34)ccc2C12CC2` (racemic) [Example 736, 5-(8-((1S,2S)-2-(2′-oxo-1′-(2,2,3,3-tetrafluoropropyl)spiro[cyclopropane-1,3′-indolin]-6′-yl)cyclopropyl)imidazo[1,2-b]pyridazin-6-yl)pyrimidine-2,4(1H,3H)-dione], the half-maximal effective concentration (EC50) on CD73 [1] was found to be 0.21 nM. In addition, at CD73 [2], half-maximal inhibition (IC50) was put at 1.91 nM.
Taken in the same sequence, the figures for `O=c1[nH]cc(-c2cc([C@H]3C[C@@H]3c3ccc(Cl)cn3)c3nccn3n2)c(=O)[nH]1` (racemic) [Example 576, 5-(8-((1S,2S)-2-(5-chloropyridin-2-yl)cyclopropyl)imidazo[1,2-b]pyridazin-6-yl)pyrimidine-2,4(1H,3H)-dione] were 6.9 nM and 2.05 nM.
The matching figures for `O=c1[nH]cc(-c2cc([C@H]3C[C@@H]3c3ncc(Cl)cc3F)c3ncc(F)n3n2)c(=O)[nH]1` [Example 588, 5-(8-((1S,2S)-2-(5-chloro-3-fluoropyridin-2-yl)cyclopropyl)-3-fluoroimidazo[1,2-b]pyridazin-6-yl)pyrimidine-2,4(1H,3H)-dione]: 2.33 nM and 0.69 nM.
In the case of `O=c1[nH]cc(-c2cc(N3CCC4(CCCC4)C3)c3nccn3n2)c(=O)[nH]1` [Example 315, 5-(8-(2-azaspiro[4.4]nonan-2-yl)imidazo[1,2-b]pyridazin-6-yl)pyrimidine-2,4(1H,3H)-dione], the EC50 at CD73 [1] amounted to 27.6 nM. On CD73 [2], this compound displayed an IC50 of 6.64 nM.
Taken in the same sequence, the figures for `C[C@@H]1CN(c2cc(-c3c[nH]c(=O)[nH]c3=O)nn3ccnc23)C[C@H]1C(F)(F)F` [Example 193, 5-[8-[(3S,4S)-3-methyl-4-(trifluoromethyl)pyrrolidin-1-yl]imidazo[1,2-b]pyridazin-6-yl]-1H-pyrimidine-2,4-dione] were 682 nM and 151 nM.
The matching figures for `O=C(NC1CN(c2cc(-c3c[nH]c(=O)[nH]c3=O)nn3ccnc23)CC1(F)F)OCC(F)(F)F` (centres unmarked) [Example 206, 2,2,2-trifluoroethyl N-[1-[6-(2,4-dioxo-1H-pyrimidin-5-yl)imidazo[1,2-b]pyridazin-8-yl]-4,4-difluoro-pyrrolidin-3-yl]carbamate]: 28.7 nM and 4.97 nM.
The matching figures for `C[C@]1(F)CCN(c2cc(-c3c[nH]c(=O)[nH]c3=O)nn3ccnc23)C1` [Example 191, 5-[8-[(3S)-3-fluoro-3-methyl-pyrrolidin-1-yl]imidazo[1,2-b]pyridazin-6-yl]-1H-pyrimidine-2,4-dione]: 45.8 nM and 21.8 nM.
As to `O=c1[nH]cc(-c2cc(N3CC(F)C4(CC4)C3)c3ncc(F)n3n2)c(=O)[nH]1` (centres unmarked) [Example 148, 5-(3-fluoro-8-(7-fluoro-5-azaspiro[2.4]heptan-5-yl)imidazo[1,2-b]pyridazin-6-yl)pyrimidine-2,4(1H,3H)-dione], the EC50 on CD73 [1] came out at 17.9 nM. This compound also registered an IC50 against CD73 [2] of 8 nM.
Taken in the same sequence, the figures for `CC(C)NC(=O)CC1CN(c2cc(-c3c[nH]c(=O)[nH]c3=O)nn3ccnc23)CC1(F)F` (centres unmarked) [Example 659, 2-(1-(6-(2,4-dioxo-1,2,3,4-tetrahydropyrimidin-5-yl)imidazo[1,2-b]pyridazin-8-yl)-4,4-difluoropyrrolidin-3-yl)-N-isopropylacetamide] were 38.1 nM and 3.98 nM.
Regarding `O=c1[nH]cc(-c2cc([C@H]3C[C@@H]3c3ccc4nc(C(F)(F)F)ccc4c3)c3nccn3n2)c(=O)[nH]1` [Example 131, 5-(8-((1S,2S)-2-(2-(trifluoromethyl)quinolin-6-yl)cyclopropyl)imidazo[1,2-b]pyridazin-6-yl)pyrimidine-2,4(1H,3H)-dione], the response at CD73 [1] was half-maximal at 6.1 nM (EC50). This compound also returned an IC50 against CD73 [2] of 0.78 nM.
On CD73 [1], `O=c1[nH]cc(-c2cc(N3CC(C4CC4(F)F)C3)c3nccn3n2)c(=O)[nH]1` (centres unmarked) [Example 400, 5-(8-(3-(2,2-difluorocyclopropyl)azetidin-1-yl)imidazo[1,2-b]pyridazin-6-yl)pyrimidine-2,4(1H,3H)-dione] displayed an EC50 of 547 nM. This compound also registered an IC50 on CD73 [2] of 207 nM.
Taken in the same sequence, the figures for `C[C@@H](NC(=O)O[C@H]1CN(c2cc(-c3c[nH]c(=O)[nH]c3=O)nn3ccnc23)CC1(F)F)C(F)(F)F` [Example 546, (S)-1-(6-(2,4-dioxo-1,2,3,4-tetrahydropyrimidin-5-yl)imidazo[1,2-b]pyridazin-8-yl)-4,4-difluoropyrrolidin-3-yl ((R)-1,1,1-trifluoropropan-2-yl)carbamate] were 0.69 nM and 1.23 nM.
Taken in the same sequence, the figures for `O=C1N(CC(F)(F)F)c2cc([C@H]3C[C@@H]3c3cc(-c4c[nH]c(=O)[nH]c4=O)nn4ccnc34)ccc2C12CCCC2` [Example 387, 5-(8-((1S,2S)-2-(2′-oxo-1′-(2,2,2-trifluoroethyl)spiro[cyclopentane-1,3′-indolin]-6′-yl)cyclopropyl)imidazo[1,2-b]pyridazin-6-yl)pyrimidine-2,4(1H,3H)-dione] were 0.36 nM and 1.27 nM.
Taken in the same sequence, the figures for `O=c1[nH]cc(-c2cc([C@H]3C[C@@H]3c3cnc(C(F)(F)F)nc3)c3nccn3n2)c(=O)[nH]1` [Example 272, 5-(8-((1S,2S)-2-(2-(trifluoromethyl)pyrimidin-5-yl)cyclopropyl)imidazo[1,2-b]pyridazin-6-yl)pyrimidine-2,4(1H,3H)-dione] were 72.6 nM and 9.9 nM.
Turning to `O=c1[nH]cc(-c2cc([C@H]3C[C@@H]3c3ccc4c(C(F)(F)F)nn(CC(F)(F)F)c4c3)c3ncc(F)n3n2)c(=O)[nH]1` [Example 329, 5-(3-fluoro-8-((1S,2S)-2-(1-(2,2,2-trifluoroethyl)-3-(trifluoromethyl)-1H-indazol-6-yl)cyclopropyl)imidazo[1,2-b]pyridazin-6-yl)pyrimidine-2,4(1H,3H)-dione], a half-maximal response on CD73 [1] (EC50) required 0.71 nM. At CD73 [2], this compound came in with a half-inhibitory concentration (IC50) of 0.64 nM.
Taken in the same sequence, the figures for `O=c1[nH]cc(-c2cc([C@H]3C[C@@H]3c3ccc(OC(F)F)cn3)c3ncc(F)n3n2)c(=O)[nH]1` [Example 132, 5-(8-((1S,2S)-2-(5-(difluoromethoxy)pyridin-2-yl)cyclopropyl)-3-fluoroimidazo[1,2-b]pyridazin-6-yl)pyrimidine-2,4(1H,3H)-dione] were 19.4 nM and 1.21 nM.
Taken in the same sequence, the figures for `O=C(OCC(F)(F)F)OCC(F)(F)COc1cc(-c2c[nH]c(=O)[nH]c2=O)nn2ccnc12` [Example 696, 3-((6-(2,4-dioxo-1,2,3,4-tetrahydropyrimidin-5-yl)imidazo[1,2-b]pyridazin-8-yl)oxy)-2,2-difluoropropyl (2,2,2-trifluoroethyl) carbonate] were 105 nM and 0.51 nM.
